This passage reports IC50 results from patent publication US6680333B2, “Imidazolidine derivatives, their preparation, their use and pharmaceutical preparations comprising them” (Aventis Pharma Deutschland GmbH, priority 2001, dated 2004).

Molecules are shown by their SMILES. pIC50: −log10 of the molar value. Counter-ions that a name gives are not always drawn.

The assay deals with T1, adhesion of U937 cells (VLA-4) to hVCAM-1(1-3)-IgG (Homo sapiens, UniProt P05556+P13612).
T1 construct: the VLA-4 integrins, are supplied in their natural form as surface molecules on human U937 cells; host or cells: Human U937 cells carry endogenous VLA-4; The partner hVCAM-1(1-3)-IgG was made in transfected COS cells (ATCC CRL1651) and used as culture supernatant
T1 sequence (P13612 34-1032): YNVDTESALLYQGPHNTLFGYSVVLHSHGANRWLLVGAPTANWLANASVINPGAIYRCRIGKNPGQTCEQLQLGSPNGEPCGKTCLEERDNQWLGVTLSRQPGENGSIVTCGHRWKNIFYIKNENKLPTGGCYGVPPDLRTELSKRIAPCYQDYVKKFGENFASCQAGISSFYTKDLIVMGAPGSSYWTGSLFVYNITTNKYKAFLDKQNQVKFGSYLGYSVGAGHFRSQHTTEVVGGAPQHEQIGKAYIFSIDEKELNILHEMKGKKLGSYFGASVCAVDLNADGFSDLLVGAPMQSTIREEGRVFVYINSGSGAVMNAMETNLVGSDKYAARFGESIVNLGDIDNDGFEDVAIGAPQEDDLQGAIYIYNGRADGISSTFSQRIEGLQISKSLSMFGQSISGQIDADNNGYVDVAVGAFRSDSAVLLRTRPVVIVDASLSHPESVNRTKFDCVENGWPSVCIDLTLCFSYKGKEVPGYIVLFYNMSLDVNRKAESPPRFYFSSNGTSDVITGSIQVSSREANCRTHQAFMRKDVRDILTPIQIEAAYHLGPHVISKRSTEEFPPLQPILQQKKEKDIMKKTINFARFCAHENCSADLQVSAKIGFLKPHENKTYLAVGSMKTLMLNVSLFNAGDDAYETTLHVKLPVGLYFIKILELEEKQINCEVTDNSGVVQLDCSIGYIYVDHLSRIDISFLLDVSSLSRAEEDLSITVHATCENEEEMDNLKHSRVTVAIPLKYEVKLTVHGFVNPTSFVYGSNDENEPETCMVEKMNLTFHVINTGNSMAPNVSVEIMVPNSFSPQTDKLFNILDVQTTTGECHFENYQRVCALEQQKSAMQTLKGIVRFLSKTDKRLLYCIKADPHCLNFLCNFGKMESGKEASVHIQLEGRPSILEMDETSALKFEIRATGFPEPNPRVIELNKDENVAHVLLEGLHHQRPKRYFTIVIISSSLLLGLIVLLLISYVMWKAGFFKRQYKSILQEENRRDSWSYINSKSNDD
T1 sequence (P05556 21-798): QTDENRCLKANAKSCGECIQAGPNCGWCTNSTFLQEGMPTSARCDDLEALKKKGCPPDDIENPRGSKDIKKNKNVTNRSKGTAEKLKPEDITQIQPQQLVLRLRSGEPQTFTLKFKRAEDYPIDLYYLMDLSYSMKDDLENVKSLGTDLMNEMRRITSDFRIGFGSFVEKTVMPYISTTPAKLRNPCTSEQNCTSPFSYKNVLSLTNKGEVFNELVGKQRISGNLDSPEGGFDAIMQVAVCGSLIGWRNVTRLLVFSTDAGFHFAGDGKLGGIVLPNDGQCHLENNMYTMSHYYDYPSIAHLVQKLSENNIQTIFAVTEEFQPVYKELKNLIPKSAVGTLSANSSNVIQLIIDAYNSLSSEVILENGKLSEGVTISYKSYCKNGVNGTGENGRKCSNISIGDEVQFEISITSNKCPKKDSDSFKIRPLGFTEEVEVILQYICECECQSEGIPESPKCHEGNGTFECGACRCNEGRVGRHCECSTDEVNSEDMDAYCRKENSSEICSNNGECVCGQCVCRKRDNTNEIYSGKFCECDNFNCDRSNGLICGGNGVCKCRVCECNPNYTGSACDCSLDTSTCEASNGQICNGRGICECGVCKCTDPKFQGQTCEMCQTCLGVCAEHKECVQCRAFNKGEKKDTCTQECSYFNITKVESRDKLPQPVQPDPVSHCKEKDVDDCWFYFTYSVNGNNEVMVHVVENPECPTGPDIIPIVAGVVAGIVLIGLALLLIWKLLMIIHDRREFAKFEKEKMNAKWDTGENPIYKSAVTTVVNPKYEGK
The experiment in a line: U937/VCAM-1 cell adhesion test. To be noted: human U937 cells (ATCC CRL 1593); recombinant hVCAM-1(1-3)-IgG; read-out: IC50 (inhibition of the adhesion of U937 cells to hVCAM-1(1-3)-IgG by 50%). The assay is classed as cell-based. From the text:
A) U937/VCAM-1 Cell Adhesion Test
The test method used for the activity of the compounds of formula I on the interaction between VCAM-1 and VLA-4 is the assay described below, which is specific for this interaction. The cellular binding components, i.e., the VLA-4 integrins, are supplied in their natural form as surface molecules on human U937 cells (ATCC CRL 1593), which belong to the leukocytes group. As specific binding components, recombinant soluble fusion proteins prepared by genetic engineering, consisting of the extracytoplasmic domain of human VCAM-1 and the constant region of a human immunoglobulin of subclass IgG1, are used.
Assay for the measurement of the adhesion of U937 cells (ATCC CRL 1593) to hVCAM-1(1-3)-IgG
1. Preparation of Human VCAM-1(1-3)-IgG and Human CD4-IgG
A genetic construct for the expression of the extracellular domain of human VCAM-1, combined with the genetic sequence of the heavy chain of the human immunoglobulin IgG1 (hinge, CH2 and CH3 regions) (from Dr. Brian Seed, Massachusetts General Hospital, Boston, USA; cf. Damle and Aruffo, Proc. Natl. Acad. Sci. USA, 88:6403 (1991)), was employed. The soluble fusion protein hVCAM-1(1-3)-IgG contained the three amino-terminal extracellular immunoglobulin-like domains of human VCAM-1 (Damle and Aruffo, Proc. Natl. Acad. Sci. USA, 88:6403 (1991)). CD4-IgG (Zettlmeissl et al., DNA and Cell Biology, 9:347 (1990)) served as a fusion protein for negative controls. The recombinant proteins were expressed as soluble proteins after DEAE/dextran-mediated DNA transfection in COS cells (ATCC CRL1651) according to standard procedures (Ausubel et al., “Current Protocols in Molecular Biology”, John Wiley & Sons, Inc., 1994).
2. Assay for the Measurement of the Adhesion of U937 Cells to hVCAM-1 (1-3)-IgG
2.1 96 well microtiter test plates (Nunc Maxisorb) were incubated at room temperature for 1 hour with 100 μL/well of a goat anti-human IgG antibody solution (10 μg/mL in 50 mM tris, pH 9.5). After removal of the antibody solution, washing was carried out once with PBS.
2.2 150 μL/well of a blocking buffer (1% BSA in PBS) were incubated on the plates at room temperature for 0.5 hour. After removal of the blocking buffer, washing was carried out once with PBS.
2.3 100 μL per well of a cell culture supernatant of transfected COS cells were incubated on the plates at room temperature for 1.5 hours. The COS cells were transfected with a plasmid which codes for the three N-terminal immunglobulin-like domains of VCAM-1, coupled to the Fc part of human IgG1 (hVCAM-l (1-3)-IgG). The content of hVCAM-1(1-3)-IgG was about 0.5-1 μg/mL. After removal of the culture supernatant, washing was carried out once with PBS.
2.4 The plates were incubated at room temperature for 20 minutes with 100 μL/well of Fc receptor block buffer (1 mg/mL γ-globulin, 100 mM NaCl, 100 μM MgCl2, 100 μM MnCl2, 100 μM CaCl2, 1 mg/mL BSA in 50 mM HEPES, pH 7.5). After removal of the Fc receptor block buffer, washing was carried out once with PBS.
2.5 20 μL of binding buffer (100 mM NaCl, 100 μM MgCl2, 100 μM MnCl2, 100 μM CaCl2, 1 mg/mL BSA in 50 mM HEPES, pH 7.5) were introduced, the substances to be tested were added in 10 μL of binding buffer and incubation was carried out for 20 minutes. Antibodies against VCAM-1 (BBT, No. BBA6) and against VLA-4 (Immunotech, No. 0764) served as controls.
2.6 U937 cells were incubated for 20 minutes in Fc receptor block buffer and then added by pipette in a concentration of 1×10^6/mL and in an amount of 100 μL per well (final volume […]).
2.7 The plates were slowly immersed at an angle of 45° in stop buffer (100 mM NaCl, 100 μM MgCl2, […], 100 μM CaCl2 in 25 mM tris, pH 7.5) and shaken off. The process was repeated.
2.8 50 μL/well of a dye solution (16.7 μg/mL of Hoechst dye 33258, 4% formaldehyde, 0.5% Triton X-100 in PBS) were then incubated on the plates for 15 minutes. […]
What is called pIC50 is −log10 of the IC50, conventionally taken in molar units. For `COc1cc(CN2C(=O)N([C@@H](CC3CC3)C(=O)N[C@H](C)CC(=O)O)C(=O)C2(C)C)ccc1NC(=O)Nc1ccccc1C` [Example 1, (R)-3-((S)-2-(4,4-Dimethyl-3-(4-(3-(2-methylphenyl)ureido)-3-methoxybenzyl)-2,5-dioxoimidazolidin-1-yl)-2-(cyclopropylmethyl)acetylamino)-3-methylpropionic Acid], the pIC50 is 9.52. Consider `COc1cc(CN2C(=O)N([C@@H](CC3CC3)C(=O)N[C@H](C)CC(=O)O)C(=O)C2(C)C)ccc1NC(=O)Nc1ccccc1C` [Example 2], for which the pIC50 was 9.30.

On to `Cc1ccccc1NC(=O)Nc1ccc(CN2C(=O)N([C@@H](CC3CC3)C(=O)N[C@H](C)CC(=O)O)C(=O)C2(C)C)cc1O` [Example 5, (R)-3-((S)-2-(4,4-Dimethyl-3-(4-(3-(2-methylphenyl)ureido)-3-hydroxybenzyl)-2,5-dioxoimidazolidin-1-yl)-2-(cyclopropylmethyl)acetylamino)-3-methylpropionic Acid], for which the pIC50 was 7.59. As to `COc1cc(CN2C(=O)N([C@@H](CC3CC3)C(=O)N[C@H](C)CC(=O)O)C(=O)C2(C)C)ccc1NC(=O)Nc1ccccc1` [Example 7, (R)-3-((S)-2-(4,4-Dimethyl-3-(4-(3-phenylureido)-3-methoxybenzyl)-2,5-dioxoimidazolidin-1-yl)-2-(cyclopropylmethyl)acetylamino)-3-methylpropionic Acid], the pIC50 was 8.68. Consider `COc1cc(CN2C(=O)N([C@@H](CC3CC3)C(=O)NC(CC(=O)O)c3cccnc3)C(=O)C2(C)C)ccc1NC(=O)Nc1ccccc1C` (stereo partly drawn) [Example 10, 3-((S)-2-(4,4-Dimethyl-3-(4-(3-(2-methylphenyl)ureido)-3-methoxybenzyl)-2,5-dioxoimidazolidin-1-yl)-2-(cyclopropylmethyl)acetylamino)-3-(3-pyridyl)propionic Acid Hydrochloride], for which the pIC50 is 9.22. As to `COc1cc(CN2C(=O)N([C@@H](CC3CC3)C(=O)NC(CC(=O)O)c3ccncc3)C(=O)C2(C)C)ccc1NC(=O)Nc1ccccc1C` (stereo partly drawn) [Example 13, 3-((S)-2-(4,4-Dimethyl-3-(4-(3-(2-methylphenyl)ureido)-3-methoxybenzyl)-2,5-dioxoimidazolidin-1-yl)-2-(cyclopropylmethyl)acetylamino)-3-(4-pyridyl)propionic Acid Hydrochloride], the negative logarithm of the IC50 (pIC50) is 8.74. The result for `COc1cc(CN2C(=O)N([C@@H](CC3CC3)C(=O)NC(CC(=O)O)c3ccccn3)C(=O)C2(C)C)ccc1NC(=O)Nc1ccccc1C` (stereo partly drawn) [Example 16, 3-((S)-2-(4,4-Dimethyl-3-(4-(3-(2-methylphenyl)ureido)-3-methoxybenzyl)-2,5-dioxoimidazolidin-1-yl)-2-(cyclopropylmethyl)acetylamino)-3-(2-pyridyl)propionic Acid] reads 9.05; that for `COc1cc(CN2C(=O)N([C@@H](CC3CC3)C(=O)N[C@@H](CC(=O)O)c3ccccc3)C(=O)C2(C(F)(F)F)C(F)(F)F)ccc1NC(=O)Nc1ccccc1C` [Example 19, (S)-3-((S)-2-(4,4-Bis(trifluoromethyl)-3-(4-(3-(2-methylphenyl)ureido)-3-methoxybenzyl)-2,5-dioxoimidazolidin-1-yl)-2-(cyclopropylmethyl)acetylamino)-3-phenylpropionic Acid], 8.36.
